Results on 18 compounds are retold here after patent US20240360146A1, “BRUTON'S TYROSINE KINASE AND MUTANT DEGRADER, COMPOSITION AND APPLICATION THEREOF” (HANGZHOU HEALZEN THERAPEUTICS CO., LTD., priority 2021, published 2024).

In this test the target is T1, BTK (Homo sapiens, UniProt Q06187).
T1 construct: endogenous in cells; host or cells: Mino cells
T1 sequence (Q06187 whole entry): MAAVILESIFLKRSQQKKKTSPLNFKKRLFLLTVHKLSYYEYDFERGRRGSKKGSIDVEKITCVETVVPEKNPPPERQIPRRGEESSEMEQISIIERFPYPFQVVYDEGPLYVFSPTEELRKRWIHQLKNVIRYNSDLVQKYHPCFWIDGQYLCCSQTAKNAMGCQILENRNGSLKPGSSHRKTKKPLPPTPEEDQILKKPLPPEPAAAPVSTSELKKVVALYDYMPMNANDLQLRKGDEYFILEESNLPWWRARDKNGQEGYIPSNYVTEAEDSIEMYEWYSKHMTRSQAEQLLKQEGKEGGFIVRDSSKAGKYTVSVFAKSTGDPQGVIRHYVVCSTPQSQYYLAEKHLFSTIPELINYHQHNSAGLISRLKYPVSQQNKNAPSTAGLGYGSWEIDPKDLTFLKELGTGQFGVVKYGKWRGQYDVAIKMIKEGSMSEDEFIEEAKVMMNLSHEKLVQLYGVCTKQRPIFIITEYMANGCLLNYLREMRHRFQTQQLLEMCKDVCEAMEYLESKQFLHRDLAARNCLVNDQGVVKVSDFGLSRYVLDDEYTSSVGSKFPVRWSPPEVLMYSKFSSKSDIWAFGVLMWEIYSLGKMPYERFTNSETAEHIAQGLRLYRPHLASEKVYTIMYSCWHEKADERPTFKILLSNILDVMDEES
The experiment in a line: BTK degradation activity test in Mino cells. It is filed as cell-based. Particulars: 16 h incubation, Western blot or Elisa. In short, it runs like this: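 DC50 derived by curve fitting of BTK degradation rates versus untreated control across compound concentrations. Mino cells were exposed for 16 h; BTK levels in lysates, normalised via BCA protein, measured by Western blot or ELISA.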
In turn, `CN1CCN(C2CC3CC2N(c2ccc(C(N)=O)c(Nc4ccc(C5CCN(C6CN(c7ccc8c(c7)C(=O)N(C7CCC(=O)NC7=O)C8=O)C6)CC5)cc4)n2)C3)C1=O` (stereo not drawn) [Compound 048, 2-((4-(1-(1-(2-(2,6-dioxopiperidin-3-yl)-1,3-dioxoisoindolin-5-yl)azetidin-3-yl)piperidin-4-yl)phenyl)amino)-6-(-6-(3-methyl-2-oxoimidazolin-1-yl)-2-azabicyclo[2.2.1]heptan-2-yl)nicotinamide] came in with a DC50 of under 1 nM.
Then `CN1CCN(C2CC3CC2N(c2nnc(C(N)=O)c(Nc4ccc(C5CCN(C6CN(c7ccc8c(c7)C(=O)N(C7CCC(=O)NC7=O)C8=O)C6)CC5)cc4)n2)C3)C1=O` (stereo not drawn) [Compound 049, 5-((4-(1-(1-(2-(2,6-dioxopiperidin-3-yl)-1,3-dioxoisoindolin-5-yl)azetidin-3-yl)piperidin-4-yl)phenyl)amino)-3-(-6-(3-methyl-2-oxoimidazolin-1-yl)-2-azabicyclo[2.2.1]heptan-2-yl)-1,2,4-triazin-6-carboxamide], with under 1 nM; and `CN1CCN(C2CC3CCC2N(c2cnc(C(N)=O)c(Nc4ccc(C5CCN(C6CN(c7ccc8c(c7)C(=O)N(C7CCC(=O)NC7=O)C8=O)C6)CC5)cc4)n2)C3)C1=O` (stereo not drawn) [Compound 050, 3-((4-(1-(1-(2-(2,6-dioxopiperidin-3-yl)-1,3-dioxoisoindolin-5-yl)azetidin-3-yl)piperidin-4-yl)phenyl)amino)-5-(-6-(3-methyl-2-oxoimidazolin-1-yl)-2-azabicyclo[2.2.2]octan-2-yl)pyrazin-2-carboxamide], with under 1 nM.
`CN1CCN(C2CC3CC2N(c2nnc(C(N)=O)c(Nc4ccc(C5CCN(C6CN(c7cc8c(cc7F)C(=O)N(C7CCC(=O)NC7=O)C8=O)C6)CC5)cc4)n2)C3)C1=O` (stereo not drawn) [Compound 051, 5-((4-(1-(1-(2-(2,6-dioxopiperidin-3-yl)-6-fluoro-1,3-dioxoisoindolin-5-yl)azetidin-3-yl)piperidin-4-yl)phenyl)amino)-3-(-6-(3-methyl-2-oxoimidazolin-1-yl)-2-azabicyclo[2.2.1]heptan-2-yl)-1,2,4-triazin-6-carboxamide]: the DC50 is under 1 nM.
`NC(=O)c1ncc(N2CCCC(N3CCN(C4CCCC4)C3=O)C2)nc1Nc1ccc(C2CCN(CC3CCN(c4cc5c(cc4F)C(=O)N(C4CCC(=O)NC4=O)C5=O)C3)CC2)cc1` (stereo not drawn) [Compound 052, 5-(3-(3-cyclopentyl-2-oxoimidazolin-1-yl)piperidin-1-yl)-3-((4-(1-((1-(2-(2,6-dioxopiperidin-3-yl)-6-fluoro-1,3-dioxoisoindolin-5-yl)pyrrolidin-3-yl)methyl)piperidin-4-yl)phenyl)amino)pyrazin-2-carboxamide] returned a DC50 of under 1 nM.
`CN1CCN(C2CCCN(c3nnc(C(N)=O)c(Nc4ccc(C5CCN(CC6CCN(c7ccc8c(c7)C(=O)N(C7CCC(=O)NC7=O)C8=O)CC6)CC5)cc4)n3)C2)C1=O` (stereo not drawn) [Compound 053, 5-((4-(1-((1-(2-(2,6-dioxopiperidin-3-yl)-1,3-dioxoisoindol-5-yl)piperidin-4-yl)methyl)piperidin-4-yl)phenyl)amino)-3-(3-(3-methyl-2-oxoimidazolin-1-yl)piperidin-1-yl)-1,2,4-triazin-6-carboxamide] came in with a DC50 of under 1 nM.
In the case of `CCN1CCN(C2CCCN(c3nnc(C(N)=O)c(Nc4ccc(C5CCN(CC6CCN(c7ccc8c(c7)C(=O)N(C7CCC(=O)NC7=O)C8=O)CC6)CC5)cc4)n3)C2)C1=O` (stereo not drawn) [Compound 054, 5-((4-(1-((1-(2-(2,6-dioxopiperidin-3-yl)-1,3-dioxoisooctyl-5-yl)piperidin-4-yl)methyl)piperidin-4-yl)phenyl)amino)-3-(3-(3-ethyl-2-oxyimidazolin-1-yl)piperidin-1-yl)-1,2,4-triazin-6-carboxamide] it was under 1 nM.
`CC(C)N1CCN(C2CCCN(c3nnc(C(N)=O)c(Nc4ccc(C5CCN(CC6CCN(c7ccc8c(c7)C(=O)N(C7CCC(=O)NC7=O)C8=O)CC6)CC5)cc4)n3)C2)C1=O` (stereo not drawn) [Compound 055, 5-((4-(1-((1-(2-(2,6-dioxopiperidin-3-yl)-1,3-dioxoisoindol-5-yl)piperidin-4-yl)methyl)piperidin-4-yl)phenyl)amino)-3-(3-(3-isopropyl-2-oxoimidazolin-1-yl)piperidin-1-yl)-1,2,4-triazin-6-carboxamide] came in with a DC50 of under 1 nM.
Then `NC(=O)c1nnc(N2CCCC(N3CCN(C(F)(F)F)C3=O)C2)nc1Nc1ccc(C2CCN(CC3CCN(c4ccc5c(c4)C(=O)N(C4CCC(=O)NC4=O)C5=O)CC3)CC2)cc1` (stereo not drawn) [Compound 056, 5-((4-(1-((1-(2-(2,6-dioxopiperidin-3-yl)-1,3-dioxoisoindol-5-yl)piperidin-4-yl)methyl)piperidin-4-yl)phenyl)amino)-3-(3-(2-oxo-3-(trifluoromethyl)imidazolin-1-yl)piperidin-1-yl)-1,2,4-triazin-6-carboxamide], with under 1 nM.
Then `NC(=O)c1nnc(N2CCCC(N3CCN(CC(F)(F)F)C3=O)C2)nc1Nc1ccc(C2CCN(CC3CCN(c4ccc5c(c4)C(=O)N(C4CCC(=O)NC4=O)C5=O)CC3)CC2)cc1` (stereo not drawn) [Compound 057, 5-((4-(1-((1-(2-(2,6-dioxopiperidin-3-yl)-1,3-dioxoisoindol-5-yl)piperidin-4-yl)methyl)piperidin-4-yl)phenyl)amino)-3-(3-(2-oxo-3-(2,2,2-trifluoroethyl)imidazolin-1-yl)piperidin-1-yl)-1,2,4-triazin-6-carboxamide], with under 1 nM; and `NC(=O)c1nnc(N2CCCC(N3CCN(C4CC4)C3=O)C2)nc1Nc1ccc(C2CCN(CC3CCN(c4ccc5c(c4)C(=O)N(C4CCC(=O)NC4=O)C5=O)CC3)CC2)cc1` (stereo not drawn) [Compound 058, 3-(3-(3-cyclopropyl-2-oxoimidazolin-1-yl)piperidin-1-yl)-5-((4-(1-((1-(2-(2,6-dioxopiperidin-3-yl)-1,3-dioxoisoindol-5-yl)piperidin-4-yl)methyl)piperidin-4-yl)phenyl)amino)-1,2,4-triazin-6-carboxamide], with under 1 nM.
`NC(=O)c1nnc(N2CCCC(N3CCN(C4CCC4)C3=O)C2)nc1Nc1ccc(C2CCN(CC3CCN(c4ccc5c(c4)C(=O)N(C4CCC(=O)NC4=O)C5=O)CC3)CC2)cc1` (stereo not drawn) [Compound 059, 3-(3-(3-cyclobutyl-2-oxoimidazolin-1-yl)piperidin-1-yl)-5-((4-(1-((1-(2-(2,6-dioxopiperidin-3-yl)-1,3-dioxoisoindol-5-yl)piperidin-4-yl)methyl)piperidin-4-yl)phenyl)amino)-1,2,4-triazin-6-carboxamide] came in with a DC50 of over 1 nM.
In the case of `NC(=O)c1nnc(N2CCCC(N3CCN(C4CCCC4)C3=O)C2)nc1Nc1ccc(C2CCN(CC3CCN(c4ccc5c(c4)C(=O)N(C4CCC(=O)NC4=O)C5=O)CC3)CC2)cc1` (stereo not drawn) [Compound 060, 3-(3-(3-cyclopentyl-2-oxoimidazolin-1-yl)piperidin-1-yl)-5-((4-(1-((1-(2-(2,6-dioxopiperidin-3-yl)-1,3-dioxoisoindol-5-yl)piperidin-4-yl)methyl)piperidin-4-yl)phenyl)amino)-1,2,4-triazin-6-carboxamide] it was under 1 nM; in that of `NC(=O)c1nnc(N2CCCC(N3CCN(C4CCCCC4)C3=O)C2)nc1Nc1ccc(C2CCN(CC3CCN(c4ccc5c(c4)C(=O)N(C4CCC(=O)NC4=O)C5=O)CC3)CC2)cc1` (stereo not drawn) [Compound 061, 3-(3-(3-cyclohexyl-2-oxoimidazolin-1-yl)piperidin-1-yl)-5-((4-(1-((1-(2-(2,6-dioxopiperidin-3-yl)-1,3-dioxoisoindol-5-yl)piperidin-4-yl)methyl)piperidin-4-yl)phenyl)amino)-1,2,4-triazin-6-carboxamide], under 1 nM; in that of `NC(=O)c1nnc(N2CCCC(N3CCN(C4COC4)C3=O)C2)nc1Nc1ccc(C2CCN(CC3CCN(c4ccc5c(c4)C(=O)N(C4CCC(=O)NC4=O)C5=O)CC3)CC2)cc1` (stereo not drawn) [Compound 062, 5-((4-(1-((1-(2-(2,6-dioxopiperidin-3-yl)-1,3-dioxoisoindol-5-yl)piperidin-4-yl)methyl)piperidin-4-yl)phenyl)amino)-3-(3-(3-(oxetan-3-yl)-2-oxoimidazolin-1-yl)piperidin-1-yl)-1,2,4-triazin-6-carboxamide], under 1 nM.
Compound `NC(=O)c1nnc(N2CCCC(N3CCN(C4CCOCC4)C3=O)C2)nc1Nc1ccc(C2CCN(CC3CCN(c4ccc5c(c4)C(=O)N(C4CCC(=O)NC4=O)C5=O)CC3)CC2)cc1` (stereo not drawn) [Compound 063, 5-((4-(1-((1-(2-(2,6-dioxopiperidin-3-yl)-1,3-dioxoisoindol-5-yl)piperidin-4-yl)methyl)piperidin-4-yl)phenyl)amino)-3-(3-(2-oxo-3-(tetrahydro-2H-pyran-4-yl)imidazolin-1-yl)piperidin-1-yl)-1,2,4-triazin-6-carboxamide] displayed a half-maximal degradation concentration (DC50) of over 1 nM.
In the case of `NC(=O)c1nnc(N2CCCC(N3CCN(c4ccccc4)C3=O)C2)nc1Nc1ccc(C2CCN(CC3CCN(c4ccc5c(c4)C(=O)N(C4CCC(=O)NC4=O)C5=O)CC3)CC2)cc1` (stereo not drawn) [Compound 064, 5-((4-(1-((1-(2-(2,6-dioxopiperidin-3-yl)-1,3-dioxoisoindol-5-yl)piperidin-4-yl)methyl)piperidin-4-yl)phenyl)amino)-3-(3-(2-oxo-3-phenylimidazolin-1-yl)piperidin-1-yl)-1,2,4-triazin-6-carboxamide] it was under 1 nM; in that of `NC(=O)c1nnc(N2CCCC(N3CCN(c4ccccc4F)C3=O)C2)nc1Nc1ccc(C2CCN(CC3CCN(c4ccc5c(c4)C(=O)N(C4CCC(=O)NC4=O)C5=O)CC3)CC2)cc1` (stereo not drawn) [Compound 065, 5-((4-(1-((1-(2-(2,6-dioxopiperidin-3-yl)-1,3-dioxoisoindol-5-yl)piperidin-4-yl)methyl)piperidin-4-yl)phenyl)amino)-3-(3-(3-(2-fluorophenyl)-2-oxoimidazolin-1-yl)piperidin-1-yl)-1,2,4-triazin-6-carboxamide], under 1 nM.
